# Assay results from patent US10449221B2, “Differentiation of stem cells into thyroid tissue” (TRUSTEES OF BOSTON UNIVERSITY, priority 2015, dated 2019).
# Entries after “also recorded” stand apart in the source; their conditions may differ.
# B1: Dkk1: Wnt inhibitor (protein, UniProt O94907 32-266, looked up)
# Dickkopf-related protein 1: TLNSVLNSNAIKNLPPPLGGAAGHPGSAVSAAPGILYPGGNKYQTIDNYQPYPCAEDEECGTDEYCASPTRGGDAGVQICLACRKRRKRCMRHAMCCPGNYCKNGICVSSDQNHFRGEIEETITESFGNDHSTLDGYSRRTTLSSKMYHTKGQEGSVCLRSSDCASGLCCARHFWSKICKPVLKEGQVCTKHRRKGSHGLEIFQRCYCGEGLSCRIQKDHHQASNSSRLHTCQRH
# B2: bone morphogenetic protein 4 (protein, UniProt P12644 293-408, looked up)
# Bone morphogenetic protein 4: SPKHHSQRARKKNKNCRRHSLYVDFSDVGWNDWIVAPPGYQAFYCHGDCPFPLADHLNSTNHAIVQTLVNSVNSSIPKACCVPTELSAISMLYLDEYDKVVLKNYQEMVVEGCGCR
# notes: growth factor in specification media
# Experiments:
# [1] = test system: Xenopus embryos; assay: Xenopus whole embryo culture in pathway antagonists, in-situ hybridization for thyroid markers; assay type: in vivo; settings: for nkx2-1 induction in the developing thyroid primordium: inhibitor from stage NF13 through NF35, XAV939 50 μM, BMS493 10 μM; for induction of thyroid markers foxe1, nkx2-1, pax2 and hhex: inhibitor from stage NF13 until NF20, DMH-1 40 μM, SU5402 10 μM
# Procedure: Xenopus embryos were generated by in vitro fertilization and assayed by in situ hybridization or confocal immunostaining as previously described (Rankin et al., 2015). Small molecule inhibitors were dissolved in DMSO according to manufacturer's instructions and added to the embryo culture saline at the following working concentrations: 10 μM SU5402 (Tocris Bioscience), 40 μM DMH-1 (Sigma), 50 μM XAV939 (Sigma) and 10 μM BMS493 (Tocris Bioscience). Foregut explants were dissected from stage NF15 and treated with Dispase (BD Pharmingen) for 15 minutes and then the mesoderm was manually removed. Foregut endoderm was then cultured in 0.5× Modified Barth's Saline with 0.1% BSA with or without 500 ng/ml rhFGF2 and 50 ng/ml rhBMP4 (R&D systems).
# [2] = test system: pSmad1/5; assay: Western blot of pSmad1/5 content in mouse foregut explants; assay type: cell-based; settings: 24 hours of treatment, DMH-1 1.5 μM vs vehicle
# Procedure: (§1) Whole foreguts were dissected from E8.5 embryos (6-8 somite pairs) in Hank's balanced salt solution (HBSS) then explanted onto 8 μm pore size Whatman Nucleopore Track-Etch Membranes (Millipore). Explants were cultured for 2-3 days in a base medium (BGJb medium (Gibco)+10% fetal bovine serum (FBS, Sigma) and 0.2 mg/ml ascorbic acid) containing either the BMPR inhibitor DMH-1 (1.5 μM, Tocris) or DMSO as a vehicle control. Whole mount immunostaining was performed using a modification of the method of Ahnfelt-Ronne et al. (Ahnfelt-Ronne et al., 2007). The primary antibodies used were: guinea pig anti-Nkx2-1 (Seven Hill Bioreagents; 1:500), rabbit anti-Pax8 (Protein Tech; 1:500) and rat anti-Ecad (R&D; 1:2000). After staining, samples were cleared with Murray's clear (2:1 benzyl benzoate: benzyl alcohol) and imaged using a Nikon A1Rsi inverted laser confocal microscope. Imaris software was used to analyze the images. DMH-1 treated and control explants were harvested and lysed in Laemmli buffer after 24 hours of treatment. Lysates were electrophoresed on a 10-20% Tris-glycine gel under reducing conditions, Western blotted, and probed with antibodies (Cell Signaling) to detect total Smad1/5 and pSmad 1/5 content; β-actin content served as a loading control.
# [3] = test system: mouse foregut explants; assay: Mouse E8.5 whole foregut explant culture, whole mount immunostaining for Nkx2-1 and Pax8; assay type: cell-based; settings: 6-8 somite foreguts, 2-3 days, DMH-1 1.5 μM vs DMSO
# Procedure: as §1
# [4] = test system: Nkx2-1GFP+; Pax8tdTomato trace+ iPSC-derived cells; assay: Lineage specification of bifluorescent reporter iPSC line by day 14; assay type: cell-based, mouse; settings: data not shown; for efficiency of lineage specification of Nkx2-1GFP+; Pax8tdTomato trace+ cells: Wnt inhibitor added to induction media; for efficiency of lineage specification, percent yield of GFP+/tdTomato+ cells: factor withdrawn or removed from the Nkx2-1 induction media
# [5] = test system: Nkx2-1mCherry ESC line; assay: Maturation of ESC-derived Nkx2-1mCherry+ thyroid progenitors, marker mRNA by RT-PCR; assay type: cell-based, mouse; settings: for thyroid specific gene expression: media used from D22 to D26, RT-PCR at Day 26
# Procedure: Further differentiation and maturation of Nkx2-1+ sorted cells was performed in either 2D or 3D culture conditions, as indicated in the text. For 2D differentiation cells sorted on day 14 were replated and grown for 8 more days in cSFDM supplemented with 250 ng/ml mFGF2, 100 ng/ml hFGF10 and 100 ng/ml Heparin Sodium Salt. […] During the first 48 hours after sorting media was supplemented with 10 μM Y27632 (Sigma Y0503). From day 20-26 5 μg/ml ITS was included in the media. […] For cultures longer than 30 days, cells were splitted using Dispase (Corning 354235) on Day 30 and re-embedded in pure Matrigel, and fed with thyroid maturation media until the harvest day indicated in the text. RNA (for FIGS. 1 to 3 and 11c) was extracted from cells using the RNeasy kit (Qiagen 74104) following the manufacturer's protocol. 150 ng of RNA was reverse transcribed to cDNA using TaqMan reverse transcription reagents (Applied Biosystems N8080234) and the manufacturer's protocol. cDNA template was diluted 1:4, and 2 μl of the diluted template was used per 25 μl real time PCR reaction using Taqman Fast Universal PCR Master Mix (Applied Biosystems 4352042) and run in technical triplicates up to 40 cycles of PCR on the Applied Biosystems StepOne machine. Alternatively, 1 μl of the diluted template was used per 13 μl real time reaction on the Applied Biosystems 7900HT Real Time PCR System. Relative gene expression, normalized to 18S control, was calculated as fold change in 18S-normalized gene expression, over baseline, using the 2^(-ΔΔCT) method. Baseline, defined as fold change=1, was set to undifferentiated embryonic stem cell levels, or if undetected, a cycle number of 40 was assigned to allow fold change calculations. For FIGS. 5 and 11 (except FIG. 11c) total RNA was extracted from cultured cells using Stat-60 reagent (Tel-Test Cs-502). Then, 150 ng of total RNA was reverse transcribed using a SuperScript Vilo cDNA synthesis kit from Invitrogen. qPCR was performed in duplicate using the 800HT thermal cycler (Applied Biosystems). Relative mRNA levels were calculated using the standard curve method and normalized to peptidylprolyl isomerase A (cyclophilin). Cyclophilin expression was quantified with custom-made primers and probe (Forward primer: [NT]. ID. NO: 1), Reverse primer: [NT]. ID. NO: 2; Probe: [NT]. ID. NO: 3).
# [6] = test system: ESC-derived definitive endoderm; assay: Nkx2-1+ endoderm induction from ESC-derived endoderm, specification media day 6-14, flow cytometry on day 14; assay type: cell-based, mouse; settings: for Nkx2-1+ cell specification by day 14: factor(s) present in induction media day 6-14; for Nkx2-1+ endodermal induction efficiency: sequential withdrawal of each individual factor from the WFKBE+2 cocktail
# Procedure: Definitive endoderm induction was performed in complete serum-free differentiation medium (cSFDM) consisting of 75% IMDM (Invitrogen 12440) and 25% Ham's Modified F12 medium (Cellgro 10-080-CV) supplemented with N2 and B27+RA (Invitrogen 17502-048 and 17504-44), 0.05% BSA (Invitrogen 15260-037), […] L-glutamine (Invitrogen 25030-081), 0.05 mg/ml ascorbic acid (Sigma A4544) and 4.5×10^-4M MTG (Sigma M6145) as previously described (Gouon-Evans et al., 2006, Longmire et al., 2012). Undifferentiated ESCs were trypsinized to form a single cell suspension and plated onto Petri dishes (500,000 cells/10 cm dish) resulting in the formation of embryoid bodies (EBs) over 60 hours. EBs were dissociated by trypsinization (0.05%, 1 min, 37° C.) and plated as single cells into cSFDM supplemented with 50 ng/ml Activin A (R&D systems 338-AC) for an additional 60 hours. For Anteriorization of endoderm, on day 5 (120 total hours of differentiation) EBs were plated onto p100 Petri dishes in Nog/SB media: cSFDM supplemented with 100 ng/ml mNoggin (R&D 1967-NG) and 10 μM SB431542 (Sigma S4317) as previously described (Longmire et al., 2012). For Nkx2-1+ endoderm induction, EBs were plated on gelatin coated 6 well plates at the equivalent density of 200,000 cells/well in Specification media: cSFDM supplemented as stated in the text with 100 ng/ml mWnt3a (R&D 1324-WN), 10 ng/ml hFGF10 (R&D 345-FG), 10 ng/ml mKGF (R&D 5028-KG), 10 ng/ml mBMP4 (R&D 5020-BP), 20 ng/ml hEGF (R&D 236-EG), 250 ng/ml mFGF2 (R&D 3139-FB) and 100 ng/ml Heparin Sodium Salt (Sigma […]2-1mCherry+ cells, or the populations otherwise indicated in the text were sorted using MoFlo or […] II SORP high speed cell sorters and replated onto gelatin-coated 24 well plates on day 12-14 at a density of 5×10^4 cells/well. Where indicated in the text, small molecule inhibitors were dissolved in DMSO according to manufacturer's instructions and added to the culture media from day 6 to 14 at the following working concentrations: Dorsomorphin 4 μM (Sigma P5499), PD98059 20 μM, SB203580 10 μM (both from Cell Signaling Technology, PHZ1164 and 5633), and LY294002 […] (Promega V1201).
molecule,measurement,setting,value
CC1(C)CC=C(C#Cc2ccccc2)c2cc(/C=C/c3ccc(C(=O)O)cc3)ccc21 [BMS493],nkx2-1 induction in the developing thyroid primordium,[1],normal nkx2-1 induction
CC(C)Oc1ccc(-c2cnc3c(-c4ccnc5ccccc45)cnn3c2)cc1 [DMH-1],"induction of thyroid markers foxe1, nkx2-1, pax2 and hhex",[1],abrogated induction of all four thyroid markers in the vast majority of embryos
same,"phosphorylation of SMAD1/5/8, pSmad1/5 content",[2],substantial reduction in pSmad1/5 content; also recorded: marked reduction in phosphorylation of SMAD1/5/8
same,"induction of Nkx2-1 and Pax8, thyroid bud formation",[3],no thyroid bud was apparent; also recorded: blocked induction of both Nkx2-1 and Pax8
Cc1c[nH]c(/C=C2\C(=O)Nc3ccccc32)c1CCC(=O)O [SU5402],"induction of thyroid markers foxe1, nkx2-1, pax2 and hhex",[1],abrogated induction of all four thyroid markers in the vast majority of embryos
"Oc1nc(-c2ccc(C(F)(F)F)cc2)nc2c1CSCC2 [XAV939, reference compound]",nkx2-1 induction in the developing thyroid primordium,[1],normal nkx2-1 induction
same,efficiency of lineage specification of Nkx2-1GFP+; Pax8tdTomato trace+ cells,[4],no significant impact
"Nc1ncnc2c1ncn2[C@@H]1O[C@@H]2COP(=O)(O)O[C@H]2[C@H]1O [cAMP, cyclic adenosine monophosphate, reference compound]",thyroid specific gene expression,[5],increase thyroid specific gene expression
same,maturation marker expression,"[5]; withdrawal of the factor from the DCI+K cocktail, day 22-26",adversely affected maturation
fibroblast growth factor 2 (basic) [FGF2],Nkx2-1+ cell specification by day 14,[6],induced low numbers of Nkx2-1+ cells with little thyroid competence
same,Nkx2-1+ endodermal induction efficiency,[6],indispensible for efficient Nkx2-1+ endodermal induction
same,"efficiency of lineage specification, percent yield of GFP+/tdTomato+ cells",[4],significant decrease in the percent yield of GFP+/tdTomato+ cells
thyroid stimulating hormone [TSH],"Nis, Tsh-r, and Tpo expression","[5]; TSH added after lineage specification, day 14-22","significant augmentation of Nis, Tsh-r, and Tpo expression"
same,expression of lineage markers Nkx2-1 and Pax8,"[5]; TSH added day 14-22, data not shown",no significant change
same,efficiency of thyroid lineage specification,"[5]; TSH added prior to lineage specification, day 9-12, data not shown",no detectable effect
same,Nis and Tsh-r expression,[5]; additional 3 days of culture maturation in the presence of TSH (Day 25 vs Day 22),further augmentation of Nis and Tsh-r expression
same,thyroid specific gene expression,[5],increase thyroid specific gene expression
same,thyroid maturation marker Nis,"[5]; substitution of TSH for cAMP in the DCI+K media, day 22-26","most robust augmentation of the thyroid maturation marker, Nis"
B1,efficiency of lineage specification of Nkx2-1GFP+; Pax8tdTomato trace+ cells,[4],no significant impact
B2,Nkx2-1+ cell specification by day 14,[6],induced low numbers of Nkx2-1+ cells with little thyroid competence
same,Nkx2-1+ endodermal induction efficiency,[6],indispensible for efficient Nkx2-1+ endodermal induction
same,"efficiency of lineage specification, percent yield of GFP+/tdTomato+ cells",[4],significant decrease in the percent yield of GFP+/tdTomato+ cells
